The source of these data is article PMC5769128, “Human UDP-Glucuronosyltransferase 2B4 and 2B7 Are Responsible for Naftopidil Glucuronidation in Vitro” (Frontiers in Pharmacology, 2018).

Data set [1] deals with T1, UGT2B7 (Homo sapiens, UniProt P16662).
T1 sequence (P16662 24-529): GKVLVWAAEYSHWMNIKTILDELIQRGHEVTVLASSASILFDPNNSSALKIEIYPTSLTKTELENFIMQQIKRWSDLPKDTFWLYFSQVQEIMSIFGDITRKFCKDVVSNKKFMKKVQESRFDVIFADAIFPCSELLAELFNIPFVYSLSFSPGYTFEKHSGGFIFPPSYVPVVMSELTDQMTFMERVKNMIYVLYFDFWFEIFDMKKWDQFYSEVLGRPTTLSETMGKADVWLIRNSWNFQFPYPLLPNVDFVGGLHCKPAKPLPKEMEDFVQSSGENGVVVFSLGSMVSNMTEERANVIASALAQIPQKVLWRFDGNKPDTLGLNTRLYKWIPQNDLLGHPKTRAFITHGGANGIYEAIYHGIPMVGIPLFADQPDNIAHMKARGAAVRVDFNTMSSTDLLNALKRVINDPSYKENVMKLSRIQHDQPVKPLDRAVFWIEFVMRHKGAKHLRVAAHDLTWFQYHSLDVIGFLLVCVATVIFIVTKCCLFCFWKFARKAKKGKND
Kind of data set: biochemical.
Method: The inhibition of UGT1A9 and UGT2B7 by NAF enantiomer was investigated using the pooled HLM, UGT1A9, and UGT2B7 with concentrations similar to that of the NAF enantiomer. Propofol, which was used as the specific substrate of UGT1A9, was added to the incubation. […] Inhibitor constants (Ki value) were estimated by fitting the expressions for competitive, non-competitive, and mixed inhibition models with Dixon plots and Lineweaver–Burk plots.

The target of data set [2] is T1, UGT2B7. Briefly: Kinetics of NAF enantiomer glucuronidation by recombinant UGT2B7. It counts as in vitro ADME. Further details: purchased BD Gentest. The protocol:
All glucuronidation assays were conducted in an incubation volume of 200 μL. Incubations were performed at 37°C in 50 mM Tris–HCl buffer (pH 7.5) with 10 mM magnesium chloride, 1 mg protein/mL of enzyme (microsomes and recombinant human UGTs), alamethicin (100 μg of alamethicin/mg microsomal protein), and NAF enantiomers (2.5–80 μM). The reaction was initiated by the addition of UDPGA (5 mM) and incubated at 37°C in a shaking water bath for 45 min. The reaction was terminated by the addition of 200 μL of ice-cold acetonitrile containing the IS (1 μM) and then centrifuged at 5000 ×g for 10 min at 4°C. The supernatant fraction was injected into the RRLC-MS/MS apparatus. Protein concentration (0.5–2 mg/mL) and incubation time (15–180 min) were optimized in preliminary studies to be within initial linear rate conditions.
Kinetic parameters were assessed in the HLM, RLM, HKM, RKM, and recombinant human UGTs (UGT2B4, 2B7, and 1A9).

Data set [3] concerns the target T2, UGT1A7 (Homo sapiens, UniProt Q9HAW7).
T2 construct: purchased BD Gentest
T2 sequence (Q9HAW7 26-530): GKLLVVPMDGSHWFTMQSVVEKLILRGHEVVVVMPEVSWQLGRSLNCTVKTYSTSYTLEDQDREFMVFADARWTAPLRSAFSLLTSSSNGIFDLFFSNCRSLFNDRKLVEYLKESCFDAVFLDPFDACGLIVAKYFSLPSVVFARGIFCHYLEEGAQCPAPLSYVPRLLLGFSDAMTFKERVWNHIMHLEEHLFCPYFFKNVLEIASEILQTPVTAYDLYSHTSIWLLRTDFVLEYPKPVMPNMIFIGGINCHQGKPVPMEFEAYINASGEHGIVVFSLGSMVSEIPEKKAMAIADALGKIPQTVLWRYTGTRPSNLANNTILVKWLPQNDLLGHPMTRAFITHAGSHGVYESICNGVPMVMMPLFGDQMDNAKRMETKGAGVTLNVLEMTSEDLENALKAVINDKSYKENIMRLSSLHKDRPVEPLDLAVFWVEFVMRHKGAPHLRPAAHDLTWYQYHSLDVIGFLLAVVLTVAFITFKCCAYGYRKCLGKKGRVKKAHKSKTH
Briefly: Inhibition screening of recombinant UGTs by NAF enantiomers, UGT1A7 (4-MU). It counts as in vitro ADME. The following applies: recombinant UGT1A7, probe 4-MU, 100 μM NAF enantiomer, read-out: Inhibition of 4-MU-G formation. The protocol:
The inhibition screening study was performed by investigating the 12 recombinant UGTs with 10 and 100 μM NAF enantiomer. […] 4-MU, as a non-specific substrate, was added to the other incubated samples. Instead of NAF enantiomers, the same volume of water was added to be the control sample. […] The formation of 4-MU-G and TFP-G produced from the 12 incubation system were analyzed by HPLC. The instrument parameters for the LC were as follows: system, Agilent 1260; Agilent Eclipse Plus C18 (2.1 mm × 50 mm, 1.8 μm, Santa Clara, CA, United States); mobile phase, methanol: 0.1% formic acid in water (0–3 min, 35:65; 3.1–4.5 min, 65:35; 4.6–5 min, 35:65); flow rate, 0.4 mL/min; column temperature, 25°C; and injection volume, 2 μL. The retention times of 4-MU, 4-MU-G, TFP, TFP-G, and MU (IS) were 1.5, 0.5, 2.2, 1.8, and 1.0 min, respectively.

Data set [4] addresses T3, recombinant human UGT1A6 (Homo sapiens, UniProt P19224).
T3 sequence (P19224 27-532): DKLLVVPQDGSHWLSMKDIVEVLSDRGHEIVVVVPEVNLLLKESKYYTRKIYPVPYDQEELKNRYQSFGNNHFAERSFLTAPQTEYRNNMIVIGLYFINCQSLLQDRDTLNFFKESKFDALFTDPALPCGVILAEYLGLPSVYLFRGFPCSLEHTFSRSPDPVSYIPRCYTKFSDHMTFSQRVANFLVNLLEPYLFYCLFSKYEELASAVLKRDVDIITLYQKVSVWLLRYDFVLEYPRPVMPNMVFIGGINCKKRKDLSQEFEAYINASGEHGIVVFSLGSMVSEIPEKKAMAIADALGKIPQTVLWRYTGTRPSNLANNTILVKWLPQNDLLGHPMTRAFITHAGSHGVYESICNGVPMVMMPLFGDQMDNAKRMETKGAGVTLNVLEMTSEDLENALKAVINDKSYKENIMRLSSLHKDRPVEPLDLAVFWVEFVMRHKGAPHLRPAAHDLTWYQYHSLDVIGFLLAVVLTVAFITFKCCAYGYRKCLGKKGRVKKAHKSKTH
Briefly: UGT reaction screening of NAF enantiomers, UGT1A6. The following applies: 10 μM substrate, 45 min.

`COc1ccccc1N1CCN(C[C@@H](O)COc2cccc3ccccc23)CC1` [R(+)-NAF] registered a Ki in data set [1] of 12.1 ± 2.2 µM. The Kinetics type entry in data set [2] was “substrate inhibition model”. Besides, the inhibition at 100 μM in data set [3] is above 75%. In data set [4], the “Glucuronide formation by UGT1A6” value is on record as “No R(+)-NAF-G was detected”.
Taken in the same sequence, the figures for `COc1ccccc1N1CCN(C[C@H](O)COc2cccc3ccccc23)CC1` [S(-)-NAF] were 18.5 ± 3.3 µM, “substrate inhibition model”, above 75% and “no activity”.

What is called Ki is a dissociation constant, usually derived from enzyme kinetics or from competition with a known ligand. Read a low Ki as higher affinity. Broadly, the inhibition is the percentage by which the read-out fell short of the control.
